Laboratory results: ChEMBL document CHEMBL6096736, “Development of a Highly Selective Ferroptosis Inducer Targeting GPX4 with 2-Ethynylthiazole-4-carboxamide as Electrophilic Warhead” (J Med Chem, 2025)
Active and inactive are the calls of the source. The calls are words filed in the database; no cut-off is given here.

Tests used:
HT-1080 [1] = test: Cytotoxicity against human HT-1080 cells assessed as cell viability incubated for 24 hrs by CCK-8 assay; conditions: HT-1080, 24 h
HT-1080 [2] = test: Induction of ferroptosis in human HT-1080 cells assessed as reduction in cell viability incubated for 24 hrs in presence of Fer-1 by CCK-8 assay; conditions: HT-1080, 24 h
[3] = Selectivity index, ratio of IC50 for cytotoxicity against human HT-1080 cells assessed as cell viability incubated for 24 hrs by CCK-8 assay to IC50 for induction of ferroptosis in human HT-1080 cells assessed as reduction in cell viability incubated for 24 hrs […] by CCK-8 assay; type: functional
[4] = biological target: T1, Phospholipid hydroperoxide glutathione peroxidase GPX4 (Homo sapiens, UniProt P36969); test: Binding affinity to human GPX4 assessed as dissociation constant by MST assay
T1 sequence (P36969 whole entry): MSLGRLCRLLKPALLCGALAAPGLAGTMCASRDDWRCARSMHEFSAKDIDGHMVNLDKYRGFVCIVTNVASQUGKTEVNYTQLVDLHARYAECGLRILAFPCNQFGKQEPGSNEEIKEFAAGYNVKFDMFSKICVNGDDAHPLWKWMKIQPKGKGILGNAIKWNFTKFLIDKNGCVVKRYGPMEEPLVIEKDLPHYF

HT-1080 [5] = test: Induction of morphological changes in human HT-1080 cells assessed as appearance of round shaped mitochondria by TEM analysis; type: functional, cell-based
HT-1080 [6] = test: Induction of morphological changes in human HT-1080 cells assessed as […] of mitochondria cristas by TEM analysis; type: functional, cell-based
HT-1080 [7] = test: Induction of ferroptosis in human HT-1080 cells assessed as increase in cellular ROS level at 0.1 uM incubated for 3 hrs by DCFH-DA staining based flow cytometry analysis; type: functional, cell-based
HT-1080 [8] = test: Induction of ferroptosis in human HT-1080 cells assessed as increase in cellular LPO level at 0.1 uM incubated for 3 hrs by BIODPY-C11 probe based flow cytometry analysis; type: functional, cell-based
HT-1080 [9] = test: Induction of ferroptosis in human HT-1080 cells assessed as increase in cellular MDA level at 0.1 uM incubated for 6 hrs; type: functional, cell-based
HT-1080 [10] = test: Induction of ferroptosis in human HT-1080 cells assessed as increase in cellular ROS level at 0.5 uM incubated for 3 hrs by DCFH-DA staining based flow cytometry analysis; type: functional, cell-based
HT-1080 [11] = test: Induction of ferroptosis in human HT-1080 cells assessed as increase in cellular LPO level at 0.5 uM incubated for 3 hrs by BIODPY-C11 probe based flow cytometry analysis; type: functional, cell-based

Row | Compound | IC50 (HT-1080 [1]) [nM] | IC50 (HT-1080 [2]) [nM] | Ratio IC50 [3] | other results
1 | C#Cc1nc(C(=O)N(c2ccc(-c3cnco3)cc2)C(C(=O)NC(C)(C)C)c2ccncn2)cs1 (stereo not given) | 354 | 8160 | 23 | 
2 | C#Cc1nc(C(=O)N(c2ccc(-c3cnco3)cc2)C(C(=O)NC(C)(C)C)c2c[nH]c3ccccc23)cs1 (stereo not given) | 98 | 8420 | 86 | 
3 | C=CC(=O)N(c1ccc(-c2cnco2)cc1)C(C(=O)NCCc1ccccc1)c1csc2ccccc12 (stereo not given) | 64 | 3750 | 58 | 
4 | O=C(NCCc1ccccc1)C(c1csc2ccccc12)N(C(=O)CCl)c1ccc(-c2cnco2)cc1 (stereo not given) | 121 | 4600 | 38 | Kd [4]: 24.7 nM; Activity (HT-1080 [5]): Active; Activity (HT-1080 [6]): Active; Activity (HT-1080 [7]): Active; Activity (HT-1080 [8]): Active; Activity (HT-1080 [9]): Active
5 | C#Cc1nc(C(=O)N(c2ccc(C(F)(F)F)cc2)C(C(=O)NC(C)(C)C)c2csc3ccccc23)cs1 (stereo not given) | 27 | 8410 | 311 | 
6 | C#Cc1nc(C(=O)N(c2ccc(-c3cnco3)cc2)C(C(=O)NC(C)(C)C)c2cccc3ccccc23)cs1 (stereo not given) | 22 | 8650 | 393 | 
7 | C#Cc1nc(C(=O)N(c2ccc(-c3cnco3)cc2)C(C(=O)NC(C)(C)C)c2ccsc2)cs1 (stereo not given) | 207 | 6340 | 30.6 | 
8 | C#Cc1nc(C(=O)N(c2ccc(-c3cnco3)cc2)C(C(=O)NC(C)(C)C)C2=CCCOC2)cs1 (stereo not given) | 415 | 6200 | 15 | 
9 | C#Cc1nc(C(=O)N(c2ccc(-n3ccnc3)cc2)C(C(=O)NC(C)(C)C)c2csc3ccccc23)cs1 (stereo not given) | 345 | 4760 | 14 | 
10 | C#Cc1nc(C(=O)N(c2ccc(-n3cccn3)cc2)C(C(=O)NC(C)(C)C)c2csc3ccccc23)cs1 (stereo not given) | 239 | 6830 | 29 | 
11 | C#Cc1nc(C(=O)N(c2ccc(-c3cnco3)cc2)C(C(=O)NC(C)(C)C)c2cc[nH]n2)cs1 (stereo not given) | 375 | 7160 | 19 | 
12 | Cc1onc(C(=O)N(c2ccc(-c3cnco3)cc2)C(C(=O)NCCc2ccccc2)c2csc3ccccc23)c1[N+](=O)[O-] (stereo not given) | > 5000 |  |  | 
13 | O=C(NCCc1ccccc1)C(c1csc2ccccc12)N(C(=O)c1cc([N+](=O)[O-])[nH]n1)c1ccc(-c2cnco2)cc1 (stereo not given) | > 5000 |  |  | 
14 | C#Cc1nc(C(=O)N(c2ccc(-c3cnco3)cc2)C(C(=O)NCCc2ccccc2)c2csc3ccccc23)cs1 (stereo not given) | 21 | 9030 | 430 | 
15 | C#Cc1nc(C(=O)N(c2ccc(-n3cncn3)cc2)C(C(=O)NC(C)(C)C)c2csc3ccccc23)cs1 (stereo not given) | 356 | 4230 | 12 | 
16 | COC(=O)c1ccc([C@H]2c3[nH]c4ccccc4c3C[C@H](C(=O)OC)N2C(=O)CCl)cc1 |  |  |  | Kd [4]: 43.7 nM; Activity (HT-1080 [10]): Active; Activity (HT-1080 [11]): Active
17 | C#Cc1nc(C(=O)N(c2ccc(-c3cnco3)cc2)C(C(=O)NC(C)(C)C)c2ccc[nH]2)cs1 (stereo not given) | 120 | 7410 | 61.7 | 
18 | C#Cc1nc(C(=O)N(c2ccc(-c3cnco3)cc2)C(C(=O)NC(C)(C)C)c2c[nH]cn2)cs1 (stereo not given) | 459 | 6140 | 13 | 
19 | C#Cc1nc(C(=O)N(c2ccc(-c3cnco3)cc2)C(C(=O)NC(C)(C)C)c2cccs2)cs1 (stereo not given) | 341 | 6790 | 19.9 | 
20 | C#Cc1nc(C(=O)N(c2ccc(-c3cnco3)cc2)C(C(=O)NCc2ccccc2)c2csc3ccccc23)cs1 (stereo not given) | 32 | 6120 | 191 | 
21 | C#Cc1nc(C(=O)N(c2ccc(-c3cnco3)cc2)C(C(=O)NC(C)(C)C)C2CCCCC2)cs1 (stereo not given) | 354 | 8160 | 23 | 
22 | C#Cc1nc(C(=O)N(c2ccc(-c3cnco3)cc2)C(C(=O)NC2CCCCC2)c2csc3ccccc23)cs1 (stereo not given) | 17 | 3870 | 228 | 
23 | C#Cc1nc(C(=O)N(c2ccc(-c3cnco3)cc2)C(C(=O)NC(C)(C)C)c2csc3ccccc23)cs1 (stereo not given) | 70 | 3050 |  | 
24 | C#Cc1nc(C(=O)N(c2ccc(-c3cnco3)cc2)C(C(=O)NC(C)(C)C)c2cncs2)cs1 (stereo not given) | 500 | 9430 | 17 | 
25 | C#Cc1nc(C(=O)N(c2ccc(-c3cnco3)cc2)[C@H](C(=O)NC(C)(C)C)c2csc3ccccc23)cs1 | 12 | 11700 |  | 
26 | C#CC(=O)N(c1ccc(-c2cnco2)cc1)C(C(=O)NCCc1ccccc1)c1csc2ccccc12 (stereo not given) | 425 | 4750 | 11 | 
27 | O=C(NCCc1ccccc1)C(c1csc2ccccc12)N(C(=O)c1ccc([N+](=O)[O-])o1)c1ccc(-c2cnco2)cc1 (stereo not given) | > 5000 |  |  | 
28 | O=C(NCCc1ccccc1)C(c1csc2ccccc12)N(C(=O)c1ccc([N+](=O)[O-])s1)c1ccc(-c2cnco2)cc1 (stereo not given) | > 5000 |  |  | 
